The values below come from patent US11970498B2, “CDK2 inhibitors” (BLUEPRINT MEDICINES CORPORATION, priority 2021, dated 2024).

In one experiment the target is CDK2/Cyclin E (Homo sapiens, UniProt P24941). The experiment in a line: CDK2/Cyclin E biochemical phosphorylation assay (Caliper mobility shift). As for the experimental part: (§1) Inhibitory effects of the compounds of the disclosure were measured in biochemical assays that measure the enzymatic phosphorylation activity of CDK enzyme in complex of Cyclin proteins phosphorylates 7.5 micromolar fluorescently labelled peptide substrate, 5-FAM-QSPKKG-CONH2, (FL-Peptide 18, Perkin Elmer, 760362) in the presence of adenosine-5′-triphosphate (ATP) and varying concentrations of the test compound in 100 mM 2-[4-(2-hydroxyethyl)piperazin-1-yl] ethanesulfonic acid (HEPES), pH 7.5, 10 mM MgCl2, 0.015% Brij-35, 1 mM dithiothreitol (DTT), 1.0% dimethylsulfoxide (DMSO). Assays were performed at 1.0 mM ATP or at ATP Km of the CDK enzymes in complex with Cyclin proteins. Reactions proceeded until between 10% to 20% total peptides were phosphorylated at room temperature (25° C.) and were terminated with 35 mM 2,2′,2″,2′″-(ethane-1,2-diyldinitrilo)tetraacetic acid (EDTA). Product was detected using the Caliper mobility shift detection method where the phosphorylated peptide (product) and substrate were electrophoretically separated and measured. Percent activity was plotted against log concentration of compound and points to generate an apparent IC50. The following CDK enzymes in complex with different cyclin proteins were used in these assays: • CDK1/Cyclin B1, GST-tag (BPS, 40454), 1.5 nM used in the assay • CDK2/Cyclin E (Eurofins, 14-475), 1.25 nM used in the assays
(§2) For inhibitory activity against CDK2/Cyclin E mutant, the following designations are used: ≤10 nM=A; >10-20 nM=B; >20-30 nM=C; >30-100 nM=D and >100=E. For inhibition CDK1/Cyclin B1, GST-tag: ≥500 nM=A; <100-500 nM=B; <100 nM=C.

For another experiment, the target named is T1, CDK1/Cyclin B1, GST-tag (Homo sapiens, UniProt P06493).
T1 construct: GST
The experiment in a line: CDK1/Cyclin B1 biochemical phosphorylation assay (Caliper mobility shift). To be noted: apparent IC50; 1.0 mM ATP or ATP Km; 1.5 nM enzyme; 25° C. As for the experimental part:
as §1, §2

[1] abbreviates: apparent IC50, 1.0 mM ATP or ATP Km, 1.25 nM enzyme, 25° C., read-out: CDK2/cyclin E1 IC50.

Read-outs that look alike come from different tables or passages of the source. Where only a bound is given, the exact number is not on record here.

T1 sequence (P06493 whole entry): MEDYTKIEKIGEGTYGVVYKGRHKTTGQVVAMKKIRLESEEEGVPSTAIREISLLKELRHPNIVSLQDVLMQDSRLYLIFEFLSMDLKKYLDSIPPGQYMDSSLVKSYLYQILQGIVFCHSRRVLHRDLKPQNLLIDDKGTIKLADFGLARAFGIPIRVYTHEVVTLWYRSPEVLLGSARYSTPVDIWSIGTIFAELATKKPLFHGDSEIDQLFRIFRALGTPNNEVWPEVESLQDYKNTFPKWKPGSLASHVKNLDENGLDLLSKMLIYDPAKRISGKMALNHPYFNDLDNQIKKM
T1 sequence (P14635 whole entry partner): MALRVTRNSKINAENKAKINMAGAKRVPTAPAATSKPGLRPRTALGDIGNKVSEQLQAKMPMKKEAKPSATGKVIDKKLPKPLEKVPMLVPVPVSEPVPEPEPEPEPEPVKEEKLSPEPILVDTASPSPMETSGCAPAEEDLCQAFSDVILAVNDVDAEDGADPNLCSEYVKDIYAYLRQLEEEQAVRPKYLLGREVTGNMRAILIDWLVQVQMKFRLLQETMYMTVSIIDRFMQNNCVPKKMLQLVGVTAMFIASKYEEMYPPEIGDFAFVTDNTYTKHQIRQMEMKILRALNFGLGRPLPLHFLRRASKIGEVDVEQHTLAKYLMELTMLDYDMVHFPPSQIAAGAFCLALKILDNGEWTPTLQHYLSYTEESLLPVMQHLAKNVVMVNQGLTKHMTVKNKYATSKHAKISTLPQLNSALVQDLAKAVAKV

`CC1(C)C[C@H](Cn2ncc3ncc(Nc4cc(OC(F)F)[nH]n4)nc32)C(=O)N1` (single isomer, unassigned) [Example 185, (S)-3-((6-((5-(difluoromethoxy)-1H-pyrazol-3-yl)amino)-1H-pyrazolo[3,4-b]pyrazin-1-yl)methyl)-5,5-dimethylpyrrolidin-2-one or (R)-3-((6-((5-(difluoromethoxy)-1H-pyrazol-3-yl)amino)-1H-pyrazolo[3,4-b]pyrazin-1-yl)methyl)-5,5-dimethylpyrrolidin-2-one]: the IC50 on CDK2/Cyclin E (setting [1]) was 30 to 100 nM; on CDK1/Cyclin B1, GST-tag it was no less than 500 nM.

In the case of `COc1cc(Nc2cnc3c(F)nn([C@@H](C)C4CCOCC4)c3n2)n[nH]1` [Example 123, (S)-3-fluoro-N-(5-methoxy-1H-pyrazol-3-yl)-1-(1-(tetrahydro-2H-pyran-4-yl)ethyl)-1H-pyrazolo[3,4-b]pyrazin-6-amine], the IC50 at CDK2/Cyclin E (setting [1]) is no more than 10 nM; on CDK1/Cyclin B1, GST-tag, no less than 500 nM.

As to `C[C@H]([C@@H]1CCOC1)n1ncc2ncc(Nc3cc(OC(F)F)[nH]n3)nc21` (single isomer, unassigned) [Example 11], the IC50 is 20 to 30 nM on CDK2/Cyclin E (setting [1]) and no less than 500 nM at CDK1/Cyclin B1, GST-tag.

As for `FC(F)Oc1cc(Nc2cnc3cnn(C[C@@]4(F)CCOC4)c3n2)n[nH]1` (single isomer, unassigned) [Example 168, (R)-N-(5-(difluoromethoxy)-1H-pyrazol-3-yl)-1-((3-fluorotetrahydrofuran-3-yl)methyl)-1H-pyrazolo[3,4-b]pyrazin-6-amine or (S)-N-(5-(difluoromethoxy)-1H-pyrazol-3-yl)-1-((3-fluorotetrahydrofuran-3-yl)methyl)-1H-pyrazolo[3,4-b]pyrazin-6-amine], the IC50 at CDK2/Cyclin E (setting [1]) is 30 to 100 nM; on CDK1/Cyclin B1, GST-tag it was no less than 500 nM.

In the case of `C[C@H](c1cccnn1)n1ncc2ncc(Nc3cc(OC(F)F)[nH]n3)nc21` (single isomer, unassigned) [Example 25, (R)—N-(5-(difluoromethoxy)-1H-pyrazol-3-yl)-1-(1-(pyridazin-3-yl)ethyl)-1H-pyrazolo[3,4-b]pyrazin-6-amine or (S)—N-(5-(difluoromethoxy)-1H-pyrazol-3-yl)-1-(1-(pyridazin-3-yl)ethyl)-1H-pyrazolo[3,4-b]pyrazin-6-amine], the IC50 on CDK2/Cyclin E (setting [1]) is 30 to 100 nM; on CDK1/Cyclin B1, GST-tag, no less than 500 nM.

Consider `FC(F)Oc1cc(Nc2cnc3cnn(C[C@H]4C[C@@H]5[C@H](C4)C5(F)F)c3n2)n[nH]1` [Example 126, 1-(((1R,3r,5S)-6,6-difluorobicyclo[3.1.0]hexan-3-yl)methyl)-N-(5-(difluoromethoxy)-1H-pyrazol-3-yl)-1H-pyrazolo[3,4-b]pyrazin-6-amine], for which the IC50 at CDK2/Cyclin E (setting [1]) was no more than 10 nM; on CDK1/Cyclin B1, GST-tag, less than 100 nM.

Take `[2H]C([2H])(C1CCOCC1)n1ncc2ncc(Nc3cc(OC(F)F)[nH]n3)nc21` [Example 226, N-(5-(difluoromethoxy)-1H-pyrazol-3-yl)-1-((tetrahydro-2H-pyran-4-yl)methyl-d2)-1H-pyrazolo[3,4-b]pyrazin-6-amine]: the IC50 is no more than 10 nM at CDK2/Cyclin E (setting [1]) and 100 to 500 nM on CDK1/Cyclin B1, GST-tag.

Regarding `COc1cc(Nc2cnc3cnn(C[C@H]4C[C@@H](C)O[C@@H](C)C4)c3n2)n[nH]1` [Example 66, 1-(((2R,4r,6S)-2,6-dimethyltetrahydro-2H-pyran-4-yl)methyl)-N-(5-methoxy-1H-pyrazol-3-yl)-1H-pyrazolo[3,4-b]pyrazin-6-amine], the IC50 at CDK2/Cyclin E (setting [1]) is no more than 10 nM; on CDK1/Cyclin B1, GST-tag it was less than 100 nM.

Consider `FC(F)Oc1cc(Nc2cnc3cnn(C[C@H]4COCCO4)c3n2)n[nH]1` [Example 86, (S)-1-((1,4-dioxan-2-yl)methyl)-N-(5-(difluoromethoxy)-1H-pyrazol-3-yl)-1H-pyrazolo[3,4-b]pyrazin-6-amine], for which the IC50 at CDK2/Cyclin E (setting [1]) is no more than 10 nM; on CDK1/Cyclin B1, GST-tag, no less than 500 nM.

`CC[C@H]([C@H](C)O)n1ncc2ncc(Nc3cc(OC(F)F)[nH]n3)nc21` (single isomer, unassigned) [Example 5, (2S,3R)-3-(6-((5-(difluoromethoxy)-1H-pyrazol-3-yl)amino)-1H-pyrazolo[3,4-b]pyrazin-1-yl)pentan-2-ol or (2S,3S)-3-(6-((5-(difluoromethoxy)-1H-pyrazol-3-yl)amino)-1H-pyrazolo[3,4-b]pyrazin-1-yl)pentan-2-ol]: the IC50 on CDK2/Cyclin E (setting [1]) is no more than 10 nM; on CDK1/Cyclin B1, GST-tag, no less than 500 nM.

As for `Fc1nn(CC2CCOCC2)c2nc(Nc3cc(OC(F)F)[nH]n3)cnc12` [Example 117, N-(5-(difluoromethoxy)-1H-pyrazol-3-yl)-3-fluoro-1-((tetrahydro-2H-pyran-4-yl)methyl)-1H-pyrazolo[3,4-b]pyrazin-6-amine], the IC50 on CDK2/Cyclin E (setting [1]) is no more than 10 nM; at CDK1/Cyclin B1, GST-tag, 100 to 500 nM.

Regarding `CC(C)(C1CCOCC1)n1ncc2ncc(Nc3cc(OC(F)F)[nH]n3)nc21` [Example 127, N-(5-(difluoromethoxy)-1H-pyrazol-3-yl)-1-(2-(tetrahydro-2H-pyran-4-yl)propan-2-yl)-1H-pyrazolo[3,4-b]pyrazin-6-amine], the IC50 is 20 to 30 nM at CDK2/Cyclin E (setting [1]) and no less than 500 nM on CDK1/Cyclin B1, GST-tag.

For `CC(C1CCCOC1)n1ncc2ncc(Nc3cc(OC(F)F)[nH]n3)nc21` (single isomer, unassigned) [Example 218], the IC50 on CDK2/Cyclin E (setting [1]) is no more than 10 nM; on CDK1/Cyclin B1, GST-tag, less than 100 nM.

As for `[2H]C([2H])(c1cccnc1)n1ncc2ncc(Nc3cc(OC(F)F)[nH]n3)nc21` [Example 224, N-(5-(difluoromethoxy)-1H-pyrazol-3-yl)-1-(pyridin-3-ylmethyl-d2)-1H-pyrazolo[3,4-b]pyrazin-6-amine], the IC50 at CDK2/Cyclin E (setting [1]) is no more than 10 nM; on CDK1/Cyclin B1, GST-tag, no less than 500 nM.

As to `FC(F)Oc1cc(Nc2cnc3cnn([C@@H]4CCCOC4)c3n2)n[nH]1` [Example 78, (R)-N-(5-(difluoromethoxy)-1H-pyrazol-3-yl)-1-(tetrahydro-2H-pyran-3-yl)-1H-pyrazolo[3,4-b]pyrazin-6-amine], the IC50 is 30 to 100 nM at CDK2/Cyclin E (setting [1]) and no less than 500 nM at CDK1/Cyclin B1, GST-tag.

With `OC[C@@H](C1CCOCC1)n1ncc2ncc(Nc3cc(OC(F)F)[nH]n3)nc21` [Example 30, (R)-2-(6-((5-(difluoromethoxy)-1H-pyrazol-3-yl)amino)-1H-pyrazolo[3,4-b]pyrazin-1-yl)-2-(tetrahydro-2H-pyran-4-yl)ethan-1-ol], the IC50 was 20 to 30 nM on CDK2/Cyclin E (setting [1]) and no less than 500 nM on CDK1/Cyclin B1, GST-tag.

Take `FC(F)Oc1cc(Nc2cnc3cnn([C@@H](c4cccnc4)C4CC4)c3n2)n[nH]1` (single isomer, unassigned) [Example 148, (S)-1-(cyclopropyl(pyridin-3-yl)methyl)-N-(5-(difluoromethoxy)-1H-pyrazol-3-yl)-1H-pyrazolo[3,4-b]pyrazin-6-amine or (R)-1-(cyclopropyl(pyridin-3-yl)methyl)-N-(5-(difluoromethoxy)-1H-pyrazol-3-yl)-1H-pyrazolo[3,4-b]pyrazin-6-amine]: the IC50 is no more than 10 nM on CDK2/Cyclin E (setting [1]) and no less than 500 nM at CDK1/Cyclin B1, GST-tag.

On to `FC(F)Oc1cc(Nc2cnc3c(Cl)nn(CC4CCOCC4)c3n2)n[nH]1` [Example 56, 3-chloro-N-(5-(difluoromethoxy)-1H-pyrazol-3-yl)-1-((tetrahydro-2H-pyran-4-yl)methyl)-1H-pyrazolo[3,4-b]pyrazin-6-amine], for which the IC50 on CDK2/Cyclin E (setting [1]) is 10 to 20 nM; on CDK1/Cyclin B1, GST-tag, no less than 500 nM.

As to `C[C@@H](c1ccc(F)nc1)n1ncc2ncc(Nc3cc(OC(F)F)[nH]n3)nc21` (single isomer, unassigned) [Example 151, (S)-N-(5-(difluoromethoxy)-1H-pyrazol-3-yl)-1-(1-(6-fluoropyridin-3-yl)ethyl)-1H-pyrazolo[3,4-b]pyrazin-6-amine or (R)-N-(5-(difluoromethoxy)-1H-pyrazol-3-yl)-1-(1-(6-fluoropyridin-3-yl)ethyl)-1H-pyrazolo[3,4-b]pyrazin-6-amine], the IC50 on CDK2/Cyclin E (setting [1]) is no more than 10 nM; at CDK1/Cyclin B1, GST-tag, no less than 500 nM.

As to `C[C@H](c1ccccn1)n1ncc2ncc(Nc3cc(OC(F)F)[nH]n3)nc21` [Example 82, (R)-N-(5-(difluoromethoxy)-1H-pyrazol-3-yl)-1-(1-(pyridin-2-yl)ethyl)-1H-pyrazolo[3,4-b]pyrazin-6-amine], the IC50 on CDK2/Cyclin E (setting [1]) is 20 to 30 nM; on CDK1/Cyclin B1, GST-tag it was no less than 500 nM.

`O[C@H]1CC[C@@H](Cn2ncc3ncc(Nc4cc(OC(F)F)[nH]n4)nc32)CC1` (single isomer, unassigned) [Example 172, (1r,4r)-4-((6-((5-(difluoromethoxy)-1H-pyrazol-3-yl)amino)-1H-pyrazolo[3,4-b]pyrazin-1-yl)methyl)cyclohexan-1-ol or (1s,4s)-4-((6-((5-(difluoromethoxy)-1H-pyrazol-3-yl)amino)-1H-pyrazolo[3,4-b]pyrazin-1-yl)methyl)cyclohexan-1-ol]: the IC50 is 10 to 20 nM at CDK2/Cyclin E (setting [1]) and no less than 500 nM at CDK1/Cyclin B1, GST-tag.

In the case of `CC(c1cccn(C)c1=O)n1ncc2ncc(Nc3cc(OC(F)F)[nH]n3)nc21` (stereo not shown), the IC50 on CDK2/Cyclin E (additional compounds not disclosed herein, assays of Biological Example 1, read-out: inhibitory activity for CDK2/cyclin E1) is greater than 10000 nM.
